The values below come from patent US6071932A, “Carbazolypiperines as GABA uptake inhibitors” (British Technology Group Intercorporate Licensing Limited, priority 1995, dated 2000).

As usually defined, the IC50 is the point on the concentration scale where inhibition reaches its midpoint.

Structures are written as SMILES. Counter-ions that a name gives are not always drawn.

Experiment [1] deals with GABA uptake. The settings on record: cited from earlier work.
Another experiment addresses T1, GABA uptake carrier (Rattus norvegicus, UniProt P31647).
T1 construct: A crude membrane preparation was prepared from selected brain areas; from tissue; host or cells: crude membrane (synaptosomal) preparation from selected brain areas
T1 sequence (P31647 1-627): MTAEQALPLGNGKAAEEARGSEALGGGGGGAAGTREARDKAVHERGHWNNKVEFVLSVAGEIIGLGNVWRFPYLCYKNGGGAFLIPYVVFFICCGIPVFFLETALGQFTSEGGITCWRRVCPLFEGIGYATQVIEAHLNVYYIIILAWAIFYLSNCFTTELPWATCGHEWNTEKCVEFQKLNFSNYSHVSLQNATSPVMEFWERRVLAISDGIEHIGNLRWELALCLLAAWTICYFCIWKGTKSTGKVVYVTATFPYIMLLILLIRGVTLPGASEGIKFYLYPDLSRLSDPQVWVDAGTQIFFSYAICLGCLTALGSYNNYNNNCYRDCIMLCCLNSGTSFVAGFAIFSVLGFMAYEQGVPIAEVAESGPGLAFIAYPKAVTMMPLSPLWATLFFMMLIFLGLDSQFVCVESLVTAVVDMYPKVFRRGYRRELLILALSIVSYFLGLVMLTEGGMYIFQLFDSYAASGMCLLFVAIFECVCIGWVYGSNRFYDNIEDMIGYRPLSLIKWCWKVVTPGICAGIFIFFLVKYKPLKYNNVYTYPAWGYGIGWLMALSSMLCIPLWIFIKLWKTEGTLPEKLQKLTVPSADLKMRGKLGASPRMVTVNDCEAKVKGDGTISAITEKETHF
Put plainly: 3H-GABA uptake in crude brain membrane preparation in presence of NNC 05-0711. Format: biochemical. The conditions noted are these: NNC 05-0711 1 mM, 0.9 nM 3H-GABA + 25 nM GABA, pH 7.5, 30° C., 8 min, read-out: IC50 (nM) in vitro, Non-GABA uptake carrier mediated uptake of 3H-GABA. Here is the method: ^3 H-GABA uptake was measured by a modification of the method of Fjalland et al., (1978). A crude membrane preparation was prepared from selected brain areas by homogenization in 20 ml of ice-cold 0.32 M sucrose with a hand driven teflon/glass Potter-Elvehjem homogenizer. The homogenate was centrifuged at 4° C. for 10 min. at 1.000×g, and the pellet was discarded. The supernatant was recentrifuged at 4° C. for 20 min. at 20.000×g. The pellet was then homogenized in 50 volumes 0.32 M sucrose. To 300 μl uptake-buffer ([…], 15.3 mM KCl, 6.67 mM MgSO4, 3.83 mM CaCl2, 16.67 mM glucose, 66.67 mM Tris, pH 7.5 at 30° C.) was added 1-(2-(((diphenylmethylene)amino)oxy)ethyl)-1,2,5,6-tetrahydro-3-pyridinecarboxylic acid (NNC 05-0711) (1 mM final concentration), 100 μl test substance and 50 μl tissue suspension. The samples were mixed and incubated at 30° C. for 8 min. Then ^3 H-GABA (0.9 nM final concentration) and unlabelled GABA (25 nM final concentration) was added, and the incubation was continued for an additional 8 min. The reaction was terminated by rapid filtration through Whatman GF/F glass fiber filters under vacuum. The filters were then washed twice in 10 ml of ice-cold isotonic saline, and the tritium trapped on the filters was quantified by conventional scintillation spectroscopy. Non-GABA uptake carrier mediated uptake of ^3 H-GABA was determined in the presence of […].

Experiment [2] relates to GABA uptake. The settings on record: oral; Yunger, L. M. et al. 1984; cited from earlier work.

As to `O=C(O)C1CCCNC1` (stereo not drawn) [nipecotic acid, 3-piperidinecarboxylic acid], the “inhibition of GABA uptake from the synaptic cleft into presynaptic nerve terminals and glial cells” value in the experiment with GABA uptake [1] was “well-known and potent inhibitor”. Regarding `C[C@H](CN1CCC(O)(c2ccccc2)CC1)Cn1c2ccccc2c2ccccc21` [Compound 13, (R)-1-((3-(9H-Carbazol-9-yl)-2-methyl)-1-propyl)-4-phenylpiperidin-4-ol hydrochloride], on GABA uptake carrier, the IC50 was found to be 7860 nM. Turning to `C[C@@H](CN1CCC(O)(c2ccccc2)CC1)Cn1c2ccccc2c2ccccc21` [Compound 11, (S)-1-((3-(9H-Carbazol-9-yl)-2-methyl)-1-propyl)-4-ph-enylpiperidin-4-ol hydrochloride], the IC50 at GABA uptake carrier is 1480 nM. In the case of `O=C(O)C1=CCCN(CCC=C(c2ccccc2)c2ccccc2)C1` [SK&F 100330A, N-(4,4-diphenyl-3-buten-1-yl)guvacine], the “orally active inhibition of GABA uptake” value in the experiment with GABA uptake [2] was “orally active inhibitors of GABA uptake”. For `O=C(O)C1CCCN(CCC=C(c2ccccc2)c2cccs2)C1` (stereo not drawn) [SK&F 100604J, N-(4-phenyl-4-(2-thienyl)-3-buten-1-yl)nipecotic acid], the “orally active inhibition of GABA uptake” value with GABA uptake [2] was “orally active inhibitors of GABA uptake”. Take `CCc1ccc2c(c1)c1ccccc1n2CCCN1CCC(O)(c2ccccc2)CC1` [Compound 16, 1-(3-(3-Ethyl-9H-carbazol-9-yl)-1-propyl)-4-phenylpiperidin-4-ol]: at GABA uptake carrier, the IC50 was found to be 1700 nM. In the case of `O=C(O)C1CCCN(CCC=C(c2ccccc2)c2ccccc2)C1` (stereo not drawn) [SK&F 89976A, N-(4,4-diphenyl-3-buten-1-yl)nipecotic acid], the “orally active inhibition of GABA uptake” value with GABA uptake [2] is reported as “orally active inhibitors of GABA uptake”. As to `O=C(O)CC1CCN(CCC=C(c2ccccc2)c2ccccc2)C1` (stereo not drawn) [SK&F 100561, N-(4,4-diphenyl-3-buten-1-yl)-homo-β-proline], the “orally active inhibition of GABA uptake” value in the experiment with GABA uptake [2] is “orally active inhibitors of GABA uptake”. Take `CC(Cl)CC(=O)n1c2ccccc2c2ccccc21` (stereo not drawn) [Compound 23, 1-(9H-Carbazol-9-yl)-3-chlorobutan-1-one]: at GABA uptake carrier, the IC50 was found to be 3100 nM.
